In PMC2790889 (Nucleic Acids Research, 2009):
Where two headings read alike, the source gives them in different places. Each block holds one compound with its values, some of them ahead of it.

What was measured:
TrmFO = settings: cited from earlier work
GidA [1] = target: T1, GidA (Escherichia coli, UniProt P0A6U3); settings: read-out: Kd (affinity of GidA for NADH); cited from earlier work
T1 sequence (P0A6U3 1-629): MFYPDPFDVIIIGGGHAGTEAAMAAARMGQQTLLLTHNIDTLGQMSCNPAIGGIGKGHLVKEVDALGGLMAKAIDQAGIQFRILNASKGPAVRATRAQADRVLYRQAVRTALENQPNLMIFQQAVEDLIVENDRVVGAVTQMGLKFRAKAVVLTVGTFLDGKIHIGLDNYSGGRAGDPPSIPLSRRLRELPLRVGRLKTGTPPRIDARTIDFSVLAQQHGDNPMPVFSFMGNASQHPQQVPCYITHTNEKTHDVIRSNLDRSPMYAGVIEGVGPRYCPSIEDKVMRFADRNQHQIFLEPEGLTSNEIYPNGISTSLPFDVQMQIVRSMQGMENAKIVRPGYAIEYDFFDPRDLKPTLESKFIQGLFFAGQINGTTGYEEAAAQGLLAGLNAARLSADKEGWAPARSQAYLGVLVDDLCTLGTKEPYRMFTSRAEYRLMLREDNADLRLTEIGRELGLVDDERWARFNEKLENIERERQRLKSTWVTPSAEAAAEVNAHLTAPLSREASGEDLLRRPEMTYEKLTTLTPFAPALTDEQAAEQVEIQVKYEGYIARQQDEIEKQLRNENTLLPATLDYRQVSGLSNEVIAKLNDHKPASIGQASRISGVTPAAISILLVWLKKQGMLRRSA

GidA [2] = target: T1, GidA; test: Affinity of GidA for FAD and NADH; format: binding

Compound: (6S) THF
concentrations of THF that inhibit the methylene-THF-dependent activity of TrmFO (TrmFO): higher than 2 µM

Compound: NC(=O)C1=CN([C@@H]2O[C@H](COP(=O)(O)OP(=O)(O)OC[C@H]3O[C@@H](n4cnc5c(N)ncnc54)[C@H](O)[C@@H]3O)[C@@H](O)[C@H]2O)C=CC1 [NADH]
Kd (GidA [1]): ~11 µM

Kd (GidA [2]): ~3 µM
Compound: Cc1cc2nc3c(=O)[nH]c(=O)nc-3n(C[C@H](O)[C@H](O)[C@H](O)COP(=O)(O)OP(=O)(O)OC[C@H]3O[C@@H](n4cnc5c(N)ncnc54)[C@H](O)[C@@H]3O)c2cc1C [FAD]
